Tested on: HDAC activity in HeLa cell nuclear extracts
Assay type: biochemical
Conditions: read-out: IC50, inhibition of HDAC activity in HeLa cell nuclear extracts; preliminary assessment, fluorescence assay

**Q.** How did the IC50 turn out when `CCC(=O)CCCCC[C@@H]1NC(=O)[C@H]2CCCCN2C(=O)[C@H]([C@@H](C)CC)NC(=O)[C@H](Cc2cn(OC)c3ccccc23)NC1=O` [apicidin] was run?
**A.** ≤ 100 nM

From publication PMC3041267 (Angewandte Chemie (International ed. in English), 2009)
